# Reference: patent publication US20140107104A1, “COMBINATION MEDICINE FOR TREATMENT OF DEPRESSION” (priority 2011, published 2014)
# Experiments:
# [1] = system: hippocampal dentate gyrus; test: RT-PCR analysis of mRNA expression in hippocampal dentate gyrus after antidepressant pellet; assay type: in vivo, mice; conditions: subcutaneously implanted pellet, 14 days, compared to placebo pellet
# Protocol: The method of subcutaneously implanting each pellet was as follows: a small incision about 5 mm was made in the neck skin of each mouse, a pellet was inserted through the incision to a depth of about 2 cm with tweezers for indwelling, and the skin was sutured.
# Total RNA was isolated from the hippocampal dentate gyrus of the mice treated with the fluoxetine pellet or the control pellet. First strand cDNA was prepared from 1 ug of DNaseI-treated total RNA using a reverse transcriptase QuantiTect (registered trademark, Qiagen, Valencia, Calif.). Gene expression was quantified using SYBR green (2×SYBR Green PCR Master Mix; Qiagen, Valencia, Calif.) according to the manufacturer's directions. Quantitative RT-PCR was performed using LightCycler (registered trademark) 480II real-time PCR detection system (Roche, Mannheim, Germany) in the following conditions (95° C.: 5 minutes; and then 40 cycles of 95° C.: 10 seconds, 60° C.: 30 seconds, and 65° C.: 1 minute). Beta-actin was amplified in all the samples for standardization of expression data. Whether or not the DNA region of each targeted gene was amplified was confirmed by melting curve analysis after RT-PCR (95° C.: 1 minute, 55° C.: 30 seconds, 95° C.: 30 seconds). The Ct value used was the average of 2 RT-PCR results.
# Experiments were conducted in the same manner as in “1.
# [2] = system: dopamine D1 receptor; test: Western blotting of dopamine D1 receptor protein in hippocampal dentate gyrus; assay type: in vivo, mice; conditions: fluoxetine pellet 14 days
# Excerpt: The samples isolated from the hippocampal dentate gyrus of mice treated with a fluoxetine pellet or a control pellet were electrophoresed using acrylamide gel, and separated proteins were electrically transferred to a nitrocellulose membrane. The D1 receptor protein transferred to the membrane was immunologically detected using a D1 receptor antibody. In the immunological detection, Odyssey near-infrared fluorescent imaging system (LI-COR Biosciences, Lincoln, Nebr.) was used.
# [3] = system: dopamine D1 receptor signaling; test: Dopamine D1 receptor signaling in slices of the hippocampal dentate gyrus (phosphorylation of DARPP-32 and ERK); assay type: cell-based, mice
# Protocol: Harvested mouse brain was kept cool in ice-cooled and oxygenated Krebs-HCO3^− buffer, and using vibratome VT1000S (Leica Microsystems, Nussloch, Germany), 350-micrometer-thick continuous coronal slices were prepared. From the coronal slices, slices of the hippocampal dentate gyrus were cut out and used for experiments. Each slice of the hippocampal dentate gyrus was preincubated in 2 mL of Krebs-HCO3^− buffer for 60 minutes and treated with a dopamine D1 receptor agonist, namely SKF81297, and dopamine D1 receptor signaling was analyzed. As an indicator of dopamine D1 receptor signaling, phosphorylation of DARPP-32 (Thr34, PKA site) and of ERK was analyzed. The phosphorylation was analyzed by western blotting with a phosphorylation state-specific antibody.
# [4] = system: dopamine D1 receptor-GFP; test: Immunohistochemical analysis of dentate gyrus of dopamine D1 receptor-GFP mice; assay type: in vivo; conditions: fluoxetine pellet 14 days vs placebo pellet
# Protocol: Each mouse was anesthetized with sodium pentobarbital and perfused with 4% paraformaldehyde (PFA) in 0.1 M phosphate buffered saline (PBS). The brain was removed and subjected to immersion fixation in the same fixing fluid at 4° C. for another 2 hours and […] frontal-plane sections were prepared using a cryostat (Leica). The sections were washed with tris buffered saline (pH 7.4) containing Tween 20. For immunostaining, frozen sections were incubated with the following primary antibody: rabbit anti-calbindin D28K polyclonal antibody (1:3000 dilution; SWANT) at 4° C. for 18 hours. The anti-calbindin D28K polyclonal antibody is a maturation marker for granule cells. For detection of antigen localization, the sections were incubated with Alexa Fluor (594)-conjugate goat anti-rabbit IgG (1:400 dilution; Invitrogen) at 4° C. for 2 hours. Further, for nuclear staining, the sections were stained with DAPI. Fluorescent signals were each analyzed using a confocal laser scanning microscope (LSM5 Pascal, Zeiss).
# [5] = system: dentate gyrus; test: Microarray analysis of genes expressed in the dentate gyrus; assay type: in vivo, mice; conditions: for expression of depression-related gene group: SKF81297 3 mg/(kg day) i.p. days 10-14; for mRNA expression level Alox8: control C 2.02; for mRNA expression level Drd4: control C 29.28; for mRNA expression level Prir (second line): control C 36.03; for mRNA expression level Drd1a: control C 46.26; for mRNA expression level Prir (first line): control C 48.03; for mRNA expression level S100a4: control C 337.31; for mRNA expression level Anxa2: control C 483.27; for mRNA expression level Rgs4 (second line): control C 687.50; for mRNA expression level Htr4: control C 723.76; for mRNA expression level Furin: control C 742.58; for mRNA expression level Gfap (third line): control C 1308.81; for mRNA expression level Bdnf: control C 1312.91; for mRNA expression level Rgs4 (first line): control C 2347.43; for mRNA expression level Gfap (second line): control C 3008.11
# Protocol: Then, microarray analysis of genes expressed in the dentate gyrus of these mice was performed.
# The microarray analysis was performed as follows. Total RNA was isolated from the hippocampus of each mouse by TRIzol method (Invitrogen, Carlsbad, Calif.) and then purified using an RNeasy column (Qiagen, Valencia, Calif.). Double strand cDNA was synthesized from the total RNA, and in vitro transcription reaction was performed using biotin-labeled RNA prepared from the cDNA. The labeled RNA was hybridized with Mouse Genome 430 2.0 Array (Affymetrix, Santa Clara, Calif.) comprising specific probe sets, and washing was performed according to the manufacturer's recommendations. The hybridized probe array was stained with streptoavidin conjugate phycoerythrin, and each GeneChip was scanned using Affymetrix GeneChip scanner 3000 (GCS3000). GeneChip analysis was performed using Microarray Analysis Suite version 5.0.
# [6] = fluoxetine pellet 15 mg/(kg day)x14 days
SMILES,mRNA expression of calbindin [1],mRNA expression of desmoplakin [1],mRNA expression of dopamine D1 receptor [1],mRNA expression of interleukin-1 receptor [1],"mRNA expression of tryptophan 2,3-dioxygenase [1]","expression of depression-related gene group [5, 6]",mRNA expression level Alox8 ([5]; same regimen),mRNA expression level Drd4 ([5]; same regimen),mRNA expression level Prir (second line) ([5]; same regimen),mRNA expression level Drd1a ([5]; same regimen),mRNA expression level Prir (first line) ([5]; same regimen),mRNA expression level S100a4 ([5]; same regimen),mRNA expression level Anxa2 ([5]; same regimen),mRNA expression level Rgs4 (second line) ([5]; same regimen),mRNA expression level Htr4 ([5]; same regimen),mRNA expression level Furin ([5]; same regimen),mRNA expression level Gfap (third line) ([5]; same regimen),mRNA expression level Bdnf ([5]; same regimen),mRNA expression level Rgs4 (first line) ([5]; same regimen),mRNA expression level Gfap (second line) ([5]; same regimen),other results
CN(C)CCCN1c2ccccc2CCc2ccccc21 [imipramine],less mRNA expression,less mRNA expression,increase in the mRNA expression,less mRNA expression,less mRNA expression,–,–,–,–,–,–,–,–,–,–,–,–,–,–,–,mRNA expression of BDNF [1]: increased
CNCCC(Oc1ccc(C(F)(F)F)cc1)c1ccccc1 (stereo not shown) [fluoxetine],less mRNA expression,less mRNA expression,increase in the mRNA expression,less mRNA expression,less mRNA expression,neither the SKF81297 sole administration nor the fluoxetine sole administration affected the expression of genes,2.11,35.57,84.69,114.21,48.69,353.74,568.07,1215.07,903.85,799.17,1757.42,1495.90,3659.58,3185.26,"protein expression of dopamine D1 receptor as compared to placebo pellet [2]: 4 times; dopamine D1 receptor signaling ([3]; fluoxetine-induced dematured dentate gyrus slices): doubled; phosphorylation of ERK induced by SKF81297 ([3]; slices from mice with fluoxetine pellet 14 days vs placebo pellet): increased; phosphorylation of DARPP-32 (Thr34, PKA site) induced by SKF81297 ([3]; slices from mice with fluoxetine pellet 14 days vs placebo pellet, SKF81297 1 uM or 10 uM): increased; expression of calbindin in granule cells [4]: lowered; expression of dopamine D1 receptor-GFP in granule cells [4]: significantly increased expression"
"Br.Oc1cc2c(c(Cl)c1O)CCNC[C@@H]2c1ccccc1 [SKF81297, R-(+)-6-chloro-7,8-dihydroxy-1-phenyl-2,3,4,5-tetrahydro-1H-3-benzazepine hydrobromide]",–,–,–,–,–,neither the SKF81297 sole administration nor the fluoxetine sole administration affected the expression of genes,2.12,30.92,160.90,43.87,61.94,389.62,684.27,1053.99,852.76,837.03,1962.44,1516.05,2742.21,4062.15,"mRNA expression level S100a10 ([5]; fluoxetine pellet 15 mg/(kg day)x14 days, SKF81297 3 mg/(kg day) i.p.x5 days, control C 461.56): 469.21; mRNA expression level Gfap (first line) ([5]; same regimen, control C […]): 140.79"
